# Data as given in US7235588B2, “Method for reducing hypertension and heart failure” (The Research Foundation of State University of New York, priority 2001, dated 2007).
# Tests used:
# [1] = tested on: hearts subjected to ischemia/reperfusion; details: cited from earlier work
# angiotensinogen mRNA = experiment: Angiotensinogen mRNA in hearts subjected to ischemia/reperfusion (primer extension assay); parameters: species or system rat; details: 30 min ischemia and 120 min reperfusion
# Procedure: Ischemia was induced by a modified Langendorf-reperfusion method in rat hearts. Hearts from adult male rats were randomly divided into 4 groups and subjected to ischemia/reperfusion. In the ischemic group, hearts were perfused with Krebs-Henseleit buffer for 60 minutes, followed by 30 minutes of global ischemia. In the ischemic/reperfused group, hearts were perfused for 60 minutes, followed by 30 minutes of global ischemia and 120 minutes of reperfusion. Control group hearts were perfused for the same lengths of time.
# Rat hearts subjected to ischemia/reperfusion were tested to determine whether activation of the renin-angiotensin system, as reflected by an increase in angiotensinogen mRNA, occurs in ischemic injury. The level of angiotensinogen mRNA was analyzed by primer extension assay using gene-specific DNA probes. A DNA primer spanning the complementary sequence of the rat angiotensinogen cDNA between nucleotides 302 and 279 (5′-[…]-3′) SEQ ID NO: 1 was end-labeled and used to evaluate the expression of angiotensinogen mRNA in total RNA isolated from the rat heart. The primer extension protocol was performed according to instructions provided by the supplier (Progema). Rat GAPDH cDNA specific primer was used as control. There was a marked increase in mRNA level after 30 minutes of ischemia and 120 minutes of reperfusion (FIG. 5A). […]
# [2] = tested on: St-domain/STAT binding activity; experiment: Electrophoretic gel mobility-shift assay of St-domain/STAT binding in heart nuclear extracts; parameters: species or system rat; details: hearts, 30 min ischemia/120 min reperfusion
# Source text: Nuclear extracts were examined in hearts subjected to global ischemia to determine whether there is enhanced STAT binding activity to the St domain of the angiotensinogen promoter. The nuclear heart extracts were examined by the electrophoretic gel mobility-shift assay that exployed the use of the chemically synthesized oligonucleotide sequence of the St domain. The St-domain DNA probe for protein binding was a double-stranded oligonucleotide containing the sequence 5′-GGGTtcCTGGAAGGG-3′ SEQ. ID NO: 2, and complementary strand 5′-CCCTTCCAGgaACCC-3′ SEQ. ID NO: 3, respectively. These probes were end-labeled by polynucleotide kinase and [γ-^32P]ATP. Binding reaction mixture containing 0.5 ng of labeled DNA (1,000 cpm), 2 μg of poly(dI-C), and 1-12 μg of protein in buffer containing 20 mM Hepes, 3% glycerol, 1.5 mM MgCl2, 1 mM DTT, 2 mM EDTA and 50 mM KCl, pH 7.5 was allowed to incubate at 4° C. for 30 min. The reactions were analyzed by electrophoresis on 8% polyacrylanide gel in 0.375× TBE ([…] Tris borate, pH 8.7 and 1.0 mM EDTA). After electrophoresis, the gels were dried and subjected to autoradiography. […] (FIG. 5B). The activation of STATs and the consequent binding to the St-domain in the angiotensinogen promoter accounts for the increase in transcription of angiotensinogen mRNA. […]
St-domain/STAT binding activity (STAT/DNA complex formation) [2],SMILES,cardioprotection / myocardial damage due to ischemia [1],angiotensinogen mRNA level (angiotensinogen mRNA)
–,N#C/C(=C\c1ccc(O)c(O)c1)C(=O)NCCCCc1ccccc1 [Tyrphostin AG556],reduces myocardial damage due to ischemia,–
almost entirely abolished,CCCCc1nc(Cl)c(CO)n1Cc1ccc(-c2ccccc2-c2nn[nH]n2)cc1 [losartan],–,reduced it almost entirely to the level of the control sample
